# Data: patent publication US20240050413A1, “COMPOSITIONS AND METHODS FOR TREATING MULTIPLE SCLEROSIS AND ALLEVIATING FATIGUE” (University of Miami, priority 2020, published 2024)
# Several values for one entry are separate records, joined by “and”; a condition that tells them apart may be missing. Equal entries are not always repeated.
# Legend:
# Type in all cases: in vivo, human
# [1] = PK/PD: L-histidine levels in plasma and CSF after final dose
# Experimental: (§1) Medications were dispensed for 7 days. On day 8, subjects arrived at the center and received the final dose of the study drug and timed from that dosing for the PK/PD studies.
# (§2) Blood samples were collected at drug administration, and every 30 minutes for 4 hours. At 90 minutes the second and final lumbar puncture was completed, and CSF obtained for measurement of L-histidine and histamine. All subjects completed the same questions to determine the effects of the treatment on fatigue, wakefulness and satiety.
# On day 7 from the baseline, the end-of-study visit, subjects arrived at the center without taking the last dose, which was administered under supervision and timed for time-zero. Baseline samples of blood for serum and plasma were collected and blood samples were obtained every half-hour for 6 hours.
# At 90 minutes post administration a lumbar puncture was performed, and 0.5 ml aliquots of spinal fluid were collected for a total of 5 minutes. Spinal fluid, serum, and plasma were frozen at -80C until analysis for levels of histidine, histamine and metabolomic studies.
# L-Histidine and L-Histidine-^13G6 analytical standards (Sigma Aldrich) were prepared in LC-MS grade water with 0.1% formic acid (FA). 25 μL of sample (CSF or blood) or calibration standard was mixed with 75 μL of LC-MS grade water with 0.1% FA and 200 μL of 2.5 μM L-Histidine-^13G6. […]
# [2] = system: MS subjects with severe fatigue; experiment: Sequential dose escalation study of fatigue in multiple sclerosis (VAFS, FSS, MFIS, Epworth sleep scale, satiety scale, adverse events); details: for improvement in the MFIS: on-drug vs off-drug
# Experimental: Three groups of subjects participated in a sequential dose escalation protocol. All subjects received a fixed dose of carbidopa, 50 mg po bid. […] Tablets of the study drugs were produced by the research pharmacy at the University of Miami. Carbidopa was prepared in 50 mg, and 1-histidine at 250 mg strength. Drug dispensation was carried out by the research pharmacist according to the dosage designated for each group.
# Benefits and adverse events were documented and reported to the Data Safety Monitoring Body (DSMB). After approval from the DSMB, group 2 was started. Group 2 received 500 mg po bid of L-histidine. Once again after approval from the DSMB, following the successful completion of group 2, escalation to group 3, namely 1 gm po bid of L-histidine was completed. All subjects agreed to participate with 2 lumbar punctures each a week apart, for collection of cerebrospinal fluid (CSF) for the PK/PD part of the study. Each group required the participation of 3 MS subjects and 1 normal individual. For whatever reason if a subject could not complete the study, the design permitted substitution so every group will have three MS subjects and a normal subject that completed the trial.
# After informed consent, subjects were screened at the first visit to meet inclusion/exclusion criteria and baseline laboratory studies were obtained including complete blood counts, comprehensive metabolic panel, thyroid panel, and inventory of health measures, including a complete general examination as well as EKG. Subjects completed questionnaires that included the following: Visual Analogue Fatigue Scale (VAFS), fatigue severity scale (FSS), modified fatigue impact scale (MFIS), Epworth sleep scale, Satiety scale, and Center for Epidemiologic Studies Depression Scale. Within 30 days of their screening visit, subjects returned for their baseline visit. The questionnaires were completed again, and subjects underwent the baseline lumbar puncture for collection of baseline cerebrospinal fluid (CSF).
# The study medication for the appropriate group was dispensed and all subjects took the first dose of the study drug during this visit.
# as §1, §2
# All subjects were recruited from the MS Center at the University of Miami. Subjects who complained of severe and persistent fatigue of duration longer than 6 months were eligible to be screened for the study. During screening inclusion and exclusion criteria were carefully reviewed. To be eligible, a subject needed to have a definite diagnosis of MS by the McDonald International Criteria and severe fatigue with a mean Fatigue Severity Score (FSS) of 5.0 or greater (maximum mean FSS=7.0). Patients with confounding factors such as anemia, untreated hypothyroidism, depression, concomitant medication that caused fatigue were carefully examined and excluded. Use of stimulants and concomitant use of medications for treatment of fatigue such as modafinil was excluded. Use of caffeine was not restricted, but patients were instructed not to change the usage. Pregnant or lactating females were not included in the study. Patients were cautioned not to use over-the-counter medications without approval of the PI during the study, especially medications for sleep or allergies including but not limited to the use of oral steroids or antihistamines with potential to confound the results of the trial.
# They were spouses of patients who participated in this trial. […]
# CSF biochemicals = experiment: Metabolomics in the cerebrospinal fluid after histidine loading
# Description: Four CSF samples from normal subjects (2 before histidine loading and 2 after) and 12 CSF samples from MS patients (6 before and 6 after histidine loading) were examined in this study. The MS samples were evenly distributed from 3 responders and 3 non-responder MS subjects. The dataset comprised a total of 494 biochemicals, 434 known and 60 unknown entities. […] A summary of the biochemicals that achieved significance (p≤0.05) as also those approaching significance (0.05<p<0.10), were examined. All assays also examined estimates of false discoveries (q-value) inherent in estimates that use multiple comparisons. A low q-value (<0.1) gave confidence in a result with a low p value as a potentially meaningful result.
# [3] = Group 1: 150 mg po bid of L-histidine and carbidopa 50 mg po bid, one individual
# [4] = Group 2: 500 mg po bid of L-histidine and carbidopa 50 mg po bid, single subject
# [5] = Group 2 responder, 500 mg po bid of L-histidine and carbidopa 50 mg po bid
# [6] = short exposure to the study drug
# [7] = following histidine loading, lower prior to loading
# [8] = responder population after histidine loading, FIG. 8
smiles,measurement,setting,value
N[C@@H](Cc1c[nH]cn1)C(=O)O [L-histidine],time after which plasma L-histidine levels became undetectable,"[1]; human, in vivo",> 4 h
same,time of peak levels of L-histidine in the plasma,"[1]; plasma, after final dose, FIG. 5A, 500 mg carbidopa arm",2 h
same,adverse events,[2]; Group 1: 150 mg po bid of L-histidine and carbidopa 50 mg po bid,No adverse events were reported
same,"response in fatigue scales (VAFS, FSS, MFIS)",[2]; [3],improved fatigue scores in all three fatigue scales
same,improvement in the MFIS,[2]; [3],30%
same,"response in fatigue scales (VAFS, FSS, MFIS)",[2]; [4],improvement in all 3 fatigue scales
same,improvement in the MFIS,[2]; [4],81%
same,cognition (written narrative),[2]; [5],"able to think clearly, have better focus, and improved cognition"
same,libido and sexual activity (written narrative),[2]; [5],Remarkable improvement of libido and sexual activity
same,overall quality of life (written narrative),[2]; [5],marked improvement in overall quality of life
same,relief from fatigue (written narratives),[2]; Group 3: L-histidine 1 gm po bid and carbidopa 50 mg po bid,The relief from fatigue was complete
same,"response in fatigue scales (VAFS, FSS, MFIS)","[2]; Group 3: L-histidine 1 gm po bid and carbidopa 50 mg po bid, MS subjects",three of the three MS subjects noticed remarkable improvement
same,improvements of MFIS better than off-drug scores,"[2]; Group 3: L-histidine 1 gm po bid and carbidopa 50 mg po bid, three MS subjects, one value each",69% and 74% and 82%
same,day on which subjects noticed the change,"[2]; all subjects who noted improvement, at whatever dose, response sustained until study drug discontinued",~2 days
same,adverse events,[2]; normal subjects,Nor did they experience any adverse events
same,benefit from the study drug,"[2]; normal subjects (no MS, no fatigue)",did not notice any benefit
same,subset scores of MSFC (post-hoc examination),"[2]; responders, physical, cognitive and psychosocial domains","improvement of all three domains, physical, cognitive and psychosocial"
same,change in satiety scale,[2]; [6],A change in satiety scale was not recorded
same,change in weight,[2]; [6],A change in weight was also not recorded
same,Epworth Sleep Scale (ESS) on study drug,"[2]; single fatigue responder with ESS over 10, dropped from 13",6
same,reported adverse events,"[2]; whole study, all groups",few and related to the lumbar punctures or unrelated intercurrent infections
same,Histamine levels in the CSF,CSF biochemicals; FIG. 7,below the level of detection sensitivity
same,Histidine levels in CSF after loading,"CSF biochemicals; MS patients and normal subjects, FIG. 7",increased after loading similarly in MS patients and normal subjects
same,Deoxycarnitine in CSF,CSF biochemicals; after histidine loading,increased
same,NAA levels in CSF,CSF biochemicals; after histidine loading,increased
same,Carnosine and homocarnosine levels in CSF,"CSF biochemicals; after histidine loading, FIG. 7",did not change significantly
same,levels of carnosine and homocarnosine,CSF biochemicals; after the intervention (concluding statement),increases the levels
same,Acetoacetate in CSF,CSF biochemicals; [7],increased following histidine loading
same,beta hydroxybutyrate in CSF,CSF biochemicals; [7],increased following histidine loading
same,cis-aconitate in CSF,"CSF biochemicals; post dosing, MS subjects",increases were observed
same,citrate in CSF,"CSF biochemicals; post dosing, MS subjects",increases were observed
same,Creatine phosphate in CSF,CSF biochemicals; [8],increased
same,N-acetylaspartate (NAA) in CSF,CSF biochemicals; [8],increased
